Assay results: patent publication US9884018B2, “Mesalamine suppository” (Aptalis Pharma Canada Inc., priority 2007, dated 2018)
Values belong to the compound of their own block, whether it stands above or below them.

Experiments:
Assay type in all cases: physicochemical
[1] = Tap density of mesalamine powder by USP tapped density test <616>; settings: for Mesalamine Tap Density: mesalamine lot used for the molten mixture, Table 9; for Tapped Density: mesalamine powder lot, Table 8; for TD (measured tapped density): individual mesalamine lot used in combination, Table 10
Procedure: Unless otherwise specified, tap density is measured by the USP tapped density test <616>.
The individual tap densities of each mesalamine lot were used to calculate a composite tapped density (CTD) based on the amount of each lot. The calculated CTD can be expressed by the following equation: (CDF)i+(CDF)2 + . . . (CDF)n=CTD where CTD=composite tapped density: CDF=contributed density factor=% of total drug used/100×TD; TD=measured tapped density; and n=number of drug lots used.

[2] = Viscosity of molten mixture of mesalamine and hard fat; settings: molten mixture prepared from the mesalamine lot, Table 11
[3] = as above; settings: in-process molten mixture of mesalamine and hard fat
Procedure: Molten mixtures were prepared by the procedure described in Example 1 using mesalamine lots A, B, and E, The molten mixtures had the viscosities reported in Table 9 below.
The in-process molten mixtures of mesalamine and hard fat used in the preparation of the suppositories described above with respect to FIGS. 4 to 6 had the viscosities reported in Table 12 below. Suppositories could not be made from Grades C and D from supplier 2.

Dispersion Viscosity ([3]; Drug Load 33% w/w): 694 Cps | Dispersion Viscosity ([3]; Drug Load 37% w/w): 1131 Cps | Dispersion Viscosity ([3]; Drug Load 42% w/w): 2512 Cps
SMILES: Nc1ccc(O)c(C(=O)O)c1 [Supplier 1, mesalamine]

Dispersion Viscosity ([3]; Drug Load 33% w/w): 595 Cps | Dispersion Viscosity ([3]; Drug Load 37% w/w): 1084 Cps | Dispersion Viscosity ([3]; Drug Load 42% w/w): 2553 Cps
SMILES: Nc1ccc(O)c(C(=O)O)c1 [Supplier 2, grade A, mesalamine]

Dispersion Viscosity ([3]; Drug Load 33% w/w): 515 Cps | Dispersion Viscosity ([3]; Drug Load 37% w/w): 845 Cps | Dispersion Viscosity ([3]; Drug Load 42% w/w): 1911 Cps
SMILES: Nc1ccc(O)c(C(=O)O)c1 [Supplier 2, grade B, mesalamine]

Tap Density ([1]; mesalamine by source, Table 12): 0.00058 g/mL | Dispersion Viscosity ([3]; Drug Load 33% w/w): Too Viscous
SMILES: Nc1ccc(O)c(C(=O)O)c1 [Supplier 2, grade C, mesalamine]

Dispersion Viscosity ([3]; Drug Load 33% w/w): Poor
SMILES: Nc1ccc(O)c(C(=O)O)c1 [Supplier 2, grade D, mesalamine]

Further lines, the compound ahead of its results:

SMILES: Nc1ccc(O)c(C(=O)O)c1 [Mesalamine Lot A, mesalamine]
Mesalamine Tap Density ([1]; listed as A): 0.81 g/mL | Tapped Density ([1]; listed as A): 0.81 g/mL

SMILES: Nc1ccc(O)c(C(=O)O)c1 [Mesalamine Lot B, mesalamine]
Mesalamine Tap Density ([1]; listed as B): 0.72 g/mL | Tapped Density ([1]; listed as B): 0.72 g/mL

SMILES: Nc1ccc(O)c(C(=O)O)c1 [Mesalamine Lot C, mesalamine]
TD (measured tapped density) ([1]; listed as C): 0.68 g/mL | Tapped Density ([1]; listed as C): 0.68 g/mL

SMILES: Nc1ccc(O)c(C(=O)O)c1 [Mesalamine Lot D, mesalamine]
TD (measured tapped density) ([1]; listed as D): 0.37 g/mL | Tapped Density ([1]; listed as D): 0.39 g/mL

SMILES: Nc1ccc(O)c(C(=O)O)c1 [Mesalamine Lot E, mesalamine]
TD (measured tapped density) ([1]; listed as E): 0.68 g/mL | Mesalamine Tap Density ([1]; listed as E): 0.68 g/mL | Tapped Density ([1]; listed as E): 0.68 g/mL

SMILES: Nc1ccc(O)c(C(=O)O)c1 [Mesalamine Lot F, mesalamine]
TD (measured tapped density) ([1]; listed as F): 0.46 g/mL | Tapped Density ([1]; listed as F): 0.46 g/mL

SMILES: Nc1ccc(O)c(C(=O)O)c1 [Mesalamine Lot G, mesalamine]
TD (measured tapped density) ([1]; listed as G): 0.60 g/mL | Tapped Density ([1]; listed as G): 0.60 g/mL

SMILES: Nc1ccc(O)c(C(=O)O)c1 [Mesalamine Lot No. 7, mesalamine]
Tap Density ([1]; mesalamine lot nos. 1-8, Table 11, listed as 7): 0.36 g/mL | Viscosity ([2]; listed as 7): 37830 cps

SMILES: Nc1ccc(O)c(C(=O)O)c1 [Mesalamine Lot No. 8, mesalamine]
Tap Density ([1]; mesalamine lot nos. 1-8, Table 11, listed as 8): 0.37 g/mL | Viscosity ([2]; listed as 8): 33735 cps
